“And” between values parts separate entries of the source, which are not always exact repeats. Identical values can stand only once.
Tested on: 953936-095-R-J2-PDC spheroids with HUVEC/MSC, viability
Experiment: Anticancer human tumor 953936-095-R-J2-PDC patient-derived cervical squamous cell carcinoma cell line growth inhibition [PI3K]
Conditions: for viability, T/C: stronger effect = lower value
Procedure, shortened: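 We assembled tumor spheroids that included a stromal compartment of HUVEC and MSCs, then exposed them to targeted agents alone and together with PI3K pathway inhibitors. Concentration series descended by half-log from clinically achievable Cmax levels. Viability served as the endpoint.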

[1] = curve of first compound, second compound 0.0316 µM
[2] = curve of first compound, second compound 0.1 µM
[3] = curve of first compound, second compound 0.316 µM
[4] = curve of first compound, second compound 1 µM
[5] = second compound 0.0316 µM, first compound 0.0316 µM
[6] = second compound 0.0316 µM, first compound 0.1 µM
[7] = second compound 0.1 µM, first compound 0.0316 µM
[8] = second compound 0.1 µM, first compound 0.1 µM
[9] = second compound 0.316 µM, first compound 0.0316 µM
[10] = second compound 0.316 µM, first compound 0.1 µM
[11] = second compound 1 µM, first compound 0.0316 µM
[12] = second compound 1 µM, first compound 0.1 µM
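Further: spheroids exposed to compounds for seven days before read-out.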

Compound: CC(Cn1ccc(-c2ccc(C#N)c(Cl)c2)n1)NC(=O)c1cc(C(C)O)[nH]n1 (stereo unspecified) + Cc1nc(NC(=O)N2CCCC2C(N)=O)sc1-c1ccnc(C(C)(C)C(F)(F)F)c1
- IC50 [1]: > 10000 nM
- IC50 [2]: > 10000 nM
- IC50 [3]: > 10000 nM
- IC50 [4]: < 31.6 nM
- IC50 (curve of first compound, second compound 3.16 µM): < 31.6 nM
- IC50 (curve of first compound, second compound 10 µM): < 31.6 nM
- viability, T/C [5]: 83.7%
- viability, T/C [6]: 95.2%
- viability, T/C (second compound 0.0316 µM, first compound 0.316 µM): 86.4%
- viability, T/C (second compound 0.0316 µM, first compound 1 µM): 96.9%
- viability, T/C (second compound 0.0316 µM, first compound 3.16 µM): 89.8%
- viability, T/C (second compound 0.0316 µM, first compound 10 µM): 107%
- viability, T/C [7]: 84.8%
- viability, T/C [8]: 77.9%
- viability, T/C (second compound 0.1 µM, first compound 0.316 µM): 78.2%
- viability, T/C (second compound 0.1 µM, first compound 1 µM): 81.2%
- viability, T/C (second compound 0.1 µM, first compound 3.16 µM): 82.4%
- viability, T/C (second compound 0.1 µM, first compound 10 µM): 79.5%
- viability, T/C [9]: 69.4%
- viability, T/C [10]: 65.3%
- viability, T/C (second compound 0.316 µM, first compound 0.316 µM): 74.1%
- viability, T/C (second compound 0.316 µM, first compound 1 µM): 61%
- viability, T/C (second compound 0.316 µM, first compound 3.16 µM): 61.7%
- viability, T/C (second compound 0.316 µM, first compound 10 µM): 66.5%
- viability, T/C [11]: 43.9%
- viability, T/C [12]: 41.7%
- viability, T/C (second compound 1 µM, first compound 0.316 µM): 43.5%
- viability, T/C (second compound 1 µM, first compound 1 µM): 45.9%
- viability, T/C (second compound 1 µM, first compound 3.16 µM): 44.1%
- viability, T/C (second compound 1 µM, first compound 10 µM): 44.6%
- viability, T/C (second compound 3.16 µM, first compound 0.0316 µM): 24.7%
- viability, T/C (second compound 3.16 µM, first compound 0.1 µM): 26.9%
- viability, T/C (second compound 3.16 µM, first compound 0.316 µM): 27.6%
- viability, T/C (second compound 3.16 µM, first compound 1 µM): 25.2%
- viability, T/C (second compound 3.16 µM, first compound 3.16 µM): 26.9%
- viability, T/C (second compound 3.16 µM, first compound 10 µM): 28.4%
- viability, T/C (second compound 10 µM, first compound 0.0316 µM): 10.3%
- viability, T/C (second compound 10 µM, first compound 0.1 µM): 10.8%
- viability, T/C (second compound 10 µM, first compound 0.316 µM): 10.9%
- viability, T/C (second compound 10 µM, first compound 1 µM): 11.1%
- viability, T/C (second compound 10 µM, first compound 3.16 µM): 10.8%
- viability, T/C (second compound 10 µM, first compound 10 µM): 13%

Compound: CC(=O)c1c(C)c2cnc(Nc3ccc(N4CCNCC4)cn3)nc2n(C2CCCC2)c1=O + CC(Nc1ccc2c(c1)OCCn1cc(N3C(=O)OCC3C(F)F)nc1-2)C(N)=O
- IC50 (curve of first compound, second compound 0.00316 µM): > 100 nM
- IC50 (curve of first compound, second compound 0.01 µM): > 100 nM
- IC50 [1]: > 100 nM
- IC50 [2]: > 100 nM
- IC50 [3]: < 0.316 nM
- IC50 [4]: < 0.316 nM
- viability, T/C (second compound 0.00316 µM, first compound 0.000316 µM): 89.4%
- viability, T/C (second compound 0.00316 µM, first compound 0.001 µM): 93.1%
- viability, T/C (second compound 0.00316 µM, first compound 0.00316 µM): 98%
- viability, T/C (second compound 0.00316 µM, first compound 0.01 µM): 99.6%
- viability, T/C (second compound 0.00316 µM, first compound 0.0316 µM): 93.5%
- viability, T/C (second compound 0.00316 µM, first compound 0.1 µM): 93.3%
- viability, T/C (second compound 0.01 µM, first compound 0.000316 µM): 94.9%
- viability, T/C (second compound 0.01 µM, first compound 0.001 µM): 87.5%
- viability, T/C (second compound 0.01 µM, first compound 0.00316 µM): 88.9%
- viability, T/C (second compound 0.01 µM, first compound 0.01 µM): 93.8%
- viability, T/C (second compound 0.01 µM, first compound 0.0316 µM): 85.7%
- viability, T/C (second compound 0.01 µM, first compound 0.1 µM): 92%
- viability, T/C (second compound 0.0316 µM, first compound 0.000316 µM): 76.3%
- viability, T/C (second compound 0.0316 µM, first compound 0.001 µM): 74.9%
- viability, T/C (second compound 0.0316 µM, first compound 0.00316 µM): 74.8%
- viability, T/C (second compound 0.0316 µM, first compound 0.01 µM): 76.5%
- viability, T/C [5]: 79.1%
- viability, T/C [6]: 68.4%
- viability, T/C (second compound 0.1 µM, first compound 0.000316 µM): 66.9%
- viability, T/C (second compound 0.1 µM, first compound 0.001 µM): 59.6%
- viability, T/C (second compound 0.1 µM, first compound 0.00316 µM): 58.6%
- viability, T/C (second compound 0.1 µM, first compound 0.01 µM): 54.5%
- viability, T/C [7]: 55.6%
- viability, T/C [8]: 54.5%
- viability, T/C (second compound 0.316 µM, first compound 0.000316 µM): 35.2%
- viability, T/C (second compound 0.316 µM, first compound 0.001 µM): 34.6%
- viability, T/C (second compound 0.316 µM, first compound 0.00316 µM): 35.6%
- viability, T/C (second compound 0.316 µM, first compound 0.01 µM): 37.7%
- viability, T/C [9]: 33.6%
- viability, T/C [10]: 35.3%
- viability, T/C (second compound 1 µM, first compound 0.000316 µM): 25%
- viability, T/C (second compound 1 µM, first compound 0.001 µM): 22.6%
- viability, T/C (second compound 1 µM, first compound 0.00316 µM): 21.7%
- viability, T/C (second compound 1 µM, first compound 0.01 µM): 22%
- viability, T/C [11]: 25.5%
- viability, T/C [12]: 22.9%

Compound: Cn1cnc2c(F)c(Nc3ccc(Br)cc3Cl)c(C(=O)NOCCO)cc21
- viability, T/C (compound 0.00949 µM): 90.5% (2×) and 83.8% and 88.8%
- viability, T/C (compound 0.03 µM): 81.4% [middle of 4 runs]
- viability, T/C (compound 0.0949 µM): 72.3% [middle of 4 runs]
- viability, T/C (compound 0.3 µM): 66% [middle of 4 runs]
- viability, T/C (compound 0.949 µM): 54.8% [middle of 4 runs]
- viability, T/C (compound 3 µM): 37.9% [middle of 4 runs]
- IC50 (curve of compound): 1.01 µM [middle of 4 runs]
